From ChEMBL document CHEMBL2203152, “Systematic in vivo screening of a series of 1-propyl-4-arylpiperidines against dopaminergic and serotonergic properties in rat brain: a scaffold-jumping approach” (J Med Chem, 2012)
pIC50, pKi: −log10 of the molar value. Active and inactive are the calls of the source. The calls are words filed in the database; no cut-off is given here.

Assays:
Rattus norvegicus [1] = assay: Reduction in spontaneous locomotor activity in Sprague-Dawley rat at 100 umol/kg, sc measured after 15 to 60 mins relative to saline-treated control; type: functional; design: scale not given: the % may be the effect or the level left
Rattus norvegicus [2] = assay: Decrease in 5-HIAA level in Sprague-Dawley rat striatum at 100 umol/kg, sc by HPLC analysis relative to saline-treated control; type: functional; design: scale not given: the % may be the effect or the level left
Rattus norvegicus [3] = assay: Increase in DOPAC level in Sprague-Dawley rat striatum at 100 umol/kg, sc by HPLC analysis relative to saline-treated control; type: functional
Rattus norvegicus [4] = assay: Increase in DOPAC level in sc dosed Sprague-Dawley rat striatum by HPLC analysis; type: functional
[5] = target: T1, Amine oxidase [flavin-containing] A (Rattus norvegicus, UniProt P21396); assay: Displacement of [3H]Ro 41-1049 from MAO-A in rat cerebral cortex by competition binding assay; type: tissue-based; settings: for pKi: read-out: Ki(app)
T1 sequence (P21396 whole entry): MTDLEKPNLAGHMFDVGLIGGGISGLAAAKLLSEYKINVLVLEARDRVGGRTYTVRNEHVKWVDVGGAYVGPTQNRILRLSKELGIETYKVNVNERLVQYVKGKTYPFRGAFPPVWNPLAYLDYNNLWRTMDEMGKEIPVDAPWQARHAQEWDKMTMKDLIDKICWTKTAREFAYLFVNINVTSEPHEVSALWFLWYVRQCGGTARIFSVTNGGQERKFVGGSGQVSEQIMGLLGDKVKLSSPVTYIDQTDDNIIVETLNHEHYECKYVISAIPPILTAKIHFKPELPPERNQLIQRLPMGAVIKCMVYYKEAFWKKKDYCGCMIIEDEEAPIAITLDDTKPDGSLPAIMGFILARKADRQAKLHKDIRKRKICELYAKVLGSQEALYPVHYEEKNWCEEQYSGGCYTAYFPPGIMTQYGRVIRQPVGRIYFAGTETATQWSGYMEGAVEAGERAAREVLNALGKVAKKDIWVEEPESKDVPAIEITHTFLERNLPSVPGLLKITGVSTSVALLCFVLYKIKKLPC

Homo sapiens = organism: Homo sapiens; assay: Selectivity ratio of Ki(app) for human low affinity Dopamine D2S receptor to Ki(app) for human high affinity Dopamine D2S receptor
[6] = target: Sodium-dependent serotonin transporter (Homo sapiens, UniProt P31645); assay: Displacement of [3H]imipramine from human SERT expressed in CHO cells by competition binding assay; type: cell-based; settings: read-out: Ki(app)
Chain of Sodium-dependent serotonin transporter (P31645 whole entry): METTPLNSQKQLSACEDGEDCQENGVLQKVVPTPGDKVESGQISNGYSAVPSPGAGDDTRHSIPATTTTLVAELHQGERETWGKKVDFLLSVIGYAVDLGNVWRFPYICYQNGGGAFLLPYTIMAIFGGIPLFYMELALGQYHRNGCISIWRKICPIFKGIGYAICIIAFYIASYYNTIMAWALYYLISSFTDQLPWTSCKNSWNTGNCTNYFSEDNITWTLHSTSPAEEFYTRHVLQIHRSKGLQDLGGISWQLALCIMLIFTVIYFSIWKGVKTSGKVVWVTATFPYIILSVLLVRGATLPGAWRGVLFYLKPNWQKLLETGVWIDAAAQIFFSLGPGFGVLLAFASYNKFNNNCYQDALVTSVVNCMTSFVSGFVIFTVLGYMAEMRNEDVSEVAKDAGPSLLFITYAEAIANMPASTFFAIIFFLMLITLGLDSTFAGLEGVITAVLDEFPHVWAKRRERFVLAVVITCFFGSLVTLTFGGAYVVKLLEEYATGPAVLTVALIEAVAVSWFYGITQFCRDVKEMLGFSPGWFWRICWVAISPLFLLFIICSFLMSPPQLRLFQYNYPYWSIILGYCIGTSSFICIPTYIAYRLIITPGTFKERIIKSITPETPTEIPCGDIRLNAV

D(2) dopamine receptor [7] = target: T2, D(2) dopamine receptor (Homo sapiens, UniProt P14416); assay: Displacement of [3H]7-OH-DPAT from human high affinity Dopamine D2S receptor by competition binding assay
T2 sequence (P14416 whole entry): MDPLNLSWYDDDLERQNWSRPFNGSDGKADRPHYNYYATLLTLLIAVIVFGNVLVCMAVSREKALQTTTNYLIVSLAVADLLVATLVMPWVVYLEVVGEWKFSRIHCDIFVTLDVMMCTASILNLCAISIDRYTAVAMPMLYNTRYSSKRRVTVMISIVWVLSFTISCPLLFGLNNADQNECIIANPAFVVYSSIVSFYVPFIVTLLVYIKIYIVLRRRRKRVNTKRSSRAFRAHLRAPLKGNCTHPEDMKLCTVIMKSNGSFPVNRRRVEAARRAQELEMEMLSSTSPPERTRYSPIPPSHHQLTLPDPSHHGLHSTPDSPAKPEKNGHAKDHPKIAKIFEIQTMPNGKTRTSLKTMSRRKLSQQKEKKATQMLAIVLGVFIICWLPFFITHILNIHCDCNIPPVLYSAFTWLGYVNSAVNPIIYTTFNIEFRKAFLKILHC

D(2) dopamine receptor [8] = target: T2, D(2) dopamine receptor; assay: Displacement of [3H]methylspiperone from human low affinity Dopamine D2S receptor by competition binding assay
[9] = target: 5-hydroxytryptamine receptor 2A (Homo sapiens, UniProt P28223); assay: Displacement of [3H]ketanserin from human 5-HT2A at 1 uM by CEREP assay
Chain of 5-hydroxytryptamine receptor 2A (P28223 whole entry): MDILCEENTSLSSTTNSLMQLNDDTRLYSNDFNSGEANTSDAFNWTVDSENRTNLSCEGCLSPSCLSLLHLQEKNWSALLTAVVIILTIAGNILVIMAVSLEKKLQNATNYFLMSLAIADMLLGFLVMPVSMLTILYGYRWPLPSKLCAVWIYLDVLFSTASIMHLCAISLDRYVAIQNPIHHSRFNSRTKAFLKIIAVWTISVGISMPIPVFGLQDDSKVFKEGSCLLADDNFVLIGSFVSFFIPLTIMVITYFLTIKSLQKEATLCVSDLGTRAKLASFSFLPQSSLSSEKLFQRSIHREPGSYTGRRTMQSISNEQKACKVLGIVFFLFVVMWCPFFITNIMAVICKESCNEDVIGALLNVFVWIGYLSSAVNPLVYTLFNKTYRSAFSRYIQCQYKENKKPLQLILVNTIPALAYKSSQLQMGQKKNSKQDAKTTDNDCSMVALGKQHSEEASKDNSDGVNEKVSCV

[10] = target: T3, Alpha-2A adrenergic receptor (Homo sapiens) (UniProt P08913); assay: Displacement of [3H]UK 14.304 from human adrenergic alpha2A receptor at 1 uM
T3 sequence (whole entry): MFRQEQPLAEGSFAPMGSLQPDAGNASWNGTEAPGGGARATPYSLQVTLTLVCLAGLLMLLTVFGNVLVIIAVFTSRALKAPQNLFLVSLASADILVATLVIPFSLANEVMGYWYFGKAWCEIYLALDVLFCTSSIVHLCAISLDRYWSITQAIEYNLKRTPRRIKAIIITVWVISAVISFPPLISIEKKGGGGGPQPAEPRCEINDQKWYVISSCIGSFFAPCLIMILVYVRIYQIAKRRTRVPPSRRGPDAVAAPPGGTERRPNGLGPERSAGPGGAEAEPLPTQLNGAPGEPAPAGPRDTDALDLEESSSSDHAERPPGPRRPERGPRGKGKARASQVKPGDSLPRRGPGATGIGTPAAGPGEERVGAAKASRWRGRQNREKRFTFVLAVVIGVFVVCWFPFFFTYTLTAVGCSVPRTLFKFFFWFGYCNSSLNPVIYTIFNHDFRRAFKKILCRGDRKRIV

[11] = target: T4, 5-hydroxytryptamine receptor 1A (Homo sapiens) (UniProt P08908); assay: Displacement of [3H]8- OH-DPAT from human 5-HT1A at 1 uM by CEREP assay
T4 sequence (whole entry): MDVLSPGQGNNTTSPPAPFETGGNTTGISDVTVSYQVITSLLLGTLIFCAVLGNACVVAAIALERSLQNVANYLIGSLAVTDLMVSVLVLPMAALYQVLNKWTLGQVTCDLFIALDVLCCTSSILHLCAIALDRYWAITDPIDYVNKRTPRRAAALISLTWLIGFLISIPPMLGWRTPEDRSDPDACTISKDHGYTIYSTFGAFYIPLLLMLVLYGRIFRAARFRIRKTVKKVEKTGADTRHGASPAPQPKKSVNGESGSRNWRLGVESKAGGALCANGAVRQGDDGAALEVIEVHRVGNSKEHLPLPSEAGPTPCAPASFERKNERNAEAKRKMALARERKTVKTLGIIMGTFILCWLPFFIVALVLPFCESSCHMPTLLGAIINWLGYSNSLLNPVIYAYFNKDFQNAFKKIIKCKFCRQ

[12] = target: Sodium-dependent dopamine transporter (Homo sapiens) (UniProt Q01959); assay: Displacement of [3H]BTCP from human DAT at 1 uM by CEREP assay
Chain of Sodium-dependent dopamine transporter (Homo sapiens) (Q01959 whole entry): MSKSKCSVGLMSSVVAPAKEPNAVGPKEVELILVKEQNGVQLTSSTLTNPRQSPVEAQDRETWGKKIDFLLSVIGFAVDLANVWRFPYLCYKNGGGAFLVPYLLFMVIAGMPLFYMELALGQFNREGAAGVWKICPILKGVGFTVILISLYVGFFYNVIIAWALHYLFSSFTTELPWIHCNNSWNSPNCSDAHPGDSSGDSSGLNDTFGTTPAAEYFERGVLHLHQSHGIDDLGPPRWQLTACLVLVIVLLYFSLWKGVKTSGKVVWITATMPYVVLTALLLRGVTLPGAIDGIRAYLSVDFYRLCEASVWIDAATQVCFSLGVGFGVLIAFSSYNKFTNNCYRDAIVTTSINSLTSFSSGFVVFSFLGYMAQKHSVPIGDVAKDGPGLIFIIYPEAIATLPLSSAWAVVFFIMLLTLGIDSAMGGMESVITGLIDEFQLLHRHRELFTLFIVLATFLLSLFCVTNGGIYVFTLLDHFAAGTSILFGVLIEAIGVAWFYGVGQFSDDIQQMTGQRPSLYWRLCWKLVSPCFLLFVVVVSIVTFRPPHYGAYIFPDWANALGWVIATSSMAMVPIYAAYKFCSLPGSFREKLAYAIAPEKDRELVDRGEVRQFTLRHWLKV

Rattus norvegicus [13] = assay: Reduction in spontaneous locomotor activity in Sprague-Dawley rat at 33 umol/kg, sc measured after 15 to 60 mins relative to saline-treated control; type: functional; design: scale not given: the % may be the effect or the level left
Rattus norvegicus [14] = assay: Decrease in 5-HIAA level in Sprague-Dawley rat striatum at 33 umol/kg, sc by HPLC analysis relative to saline-treated control; type: functional; design: scale not given: the % may be the effect or the level left
Rattus norvegicus [15] = assay: Increase in DOPAC level in Sprague-Dawley rat striatum at 33 umol/kg, sc by HPLC analysis relative to saline-treated control; type: functional

| SMILES | Activity (Rattus norvegicus [1]) | Activity (Rattus norvegicus [2]) | Activity (Rattus norvegicus [3]) | ED50 (Rattus norvegicus [4]) | pIC50 [5] | Ratio Ki(app) (Homo sapiens) | pKi [6] | pKi (D(2) dopamine receptor [7]) | pKi (D(2) dopamine receptor [8]) | pKi [5] | pIC50 (D(2) dopamine receptor [8]) | inhibition [9] | inhibition [10] | inhibition [11] | inhibition [12] | Activity (Rattus norvegicus [13]) | Activity (Rattus norvegicus [14]) | Activity (Rattus norvegicus [15]) |
| --- | --- | --- | --- | --- | --- | --- | --- | --- | --- | --- | --- | --- | --- | --- | --- | --- | --- | --- |
| CCCN1CCC(N2C(=O)C(=O)c3ccccc32)CC1 | 118% | 95% | 101% | inactive | < 3.24 | 0.9 | 4.62 | 4.89 | 4.92 |  |  |  |  |  |  |  |  |  |
| CCCN1CCC(c2csc3ccccc23)CC1 | 48% | 79% | 290% | 54 µmol/kg |  | 4.6 | 8.19 | 7.59 | 6.92 | 4.85 |  |  |  |  |  |  |  |  |
| CCCN1CCC(n2cnc3ccccc32)CC1 | 20% | 98% | 111% | inactive | < 3.24 |  | 6.91 | 4.97 |  |  | < 3.24 |  |  |  |  |  |  |  |
| CCCN1CCC(c2cn(C)c3cc(F)ccc23)CC1 | 27% | 95% | 264% | 33 µmol/kg |  | 1.7 | 7.35 | 6.80 | 6.56 | 5.39 |  |  |  |  |  |  |  |  |
| CCCN1CCC(c2cc3ccccc3s2)CC1 | 37% | 76% | 28% |  |  | 4 | 6.89 | 6.24 | 5.63 | 7.74 |  | 95% | 21% | 23% | 67% |  |  |  |
| CCCN1CCC(c2n[nH]c3ccccc23)CC1 |  |  |  | 55 µmol/kg |  | 5.7 | 5.25 | 6.73 | 5.97 | 5.13 |  |  |  |  |  | 7% | 105% | 227% |
| CCCN1CCC(c2cccc(S(C)(=O)=O)c2)CC1 [PRIDOPIDINE] |  |  |  | 81 µmol/kg |  |  |  |  |  |  |  |  |  |  |  |  |  |  |
| CCCN1CCC(c2ccc3ccccc3c2)CC1 | 22% | 70% | 32% |  |  | 1.9 | 6.90 | 5.81 | 5.54 | 7.20 |  | 91% | 20% | 41% | 47% |  |  |  |
| CCCN1CCC(c2c[nH]c3cc(F)ccc23)CC1 |  |  |  | 4.1 µmol/kg |  | 0.6 | 7.35 | 7.37 | 7.57 | 4.80 |  | 100% | 91% | 14% | 1% | 2.8% | 93% | 299% |
| CCCN1CCC(n2c(=O)n(C)c3cc(Cl)ccc32)CC1 | 27% | 113% | 253% | 47 µmol/kg | < 3.24 | 0.4 | 5.65 | 5.29 | 5.70 |  |  |  |  |  |  |  |  |  |
| CCCN1CCC(c2cn(C)c3ccc(F)cc23)CC1 |  |  |  | 3 µmol/kg |  | 1.7 | 7.24 | 7.72 | 7.49 | 5.16 |  |  |  |  |  | 9% | 87% | 275% |
| CCCN1CCC(c2cccc3ccccc23)CC1 | 62% | 76% | 218% | 103 µmol/kg |  | 2.7 | 7.28 | 7.39 | 6.95 | 5.27 |  |  |  |  |  |  |  |  |
| CCCN1CCC(n2ccc3ccccc32)CC1 | 92% | 87% | 227% | 126 µmol/kg |  | 10 | 7.27 | 6.96 | 5.94 | 4.13 |  |  |  |  |  |  |  |  |
| CCCN1CCC[C@@H](c2cccc(S(C)(=O)=O)c2)C1 | 215% | 100% | 260% | 63 µmol/kg |  |  |  |  |  |  |  |  |  |  |  |  |  |  |
